# Measurements from patent EP0007205A1, “Optically active phenethanolamines, their formulations, use and preparation” (ELI LILLY AND COMPANY, priority 1978, dated 1980).
# Where two headings read alike, the source gives them in different places.
# Legend:
# [1] = system: dogs; experiment: Inotropic potency in anesthetized dogs and conscious dogs with implanted cardiovascular transducers; assay type: in vivo; settings: for ED50: read-out: Cardiac Contractile Potency mcg/kg ED50; for Blood Pressure Change mm/hg at ED50 / Heart rate Change beats/min. at ED50: at the contractile ED50
# Procedure: The heart rate, arterial pressure, cardiac output, and the derivative of left ventricular pressure (which is the index of cardiac contractility), were measured.
# [2] = system: dogs; experiment: Physical conditioning of dogs (treadmill exercise, chronic oral dosing); assay type: in vivo
# Source text: In a typical experiment, a group of ten dogs were implanted with miniature pressure transducers in their left ventricle so that measurements of heart rate, systolic pressure and the derivative of left ventricular pressure (the index of cardiac contractility) could be made. The dogs were trained to walk on a treadmill. Five of the dogs were randomly selected to receive a compound of this invention, for instance R,R-N-[2-(4-hydroxyphenyl)-2-hydroxyethyl]-1-methyl-3-(4-hydroxyphenyl)propylaminium chloride. The test animals received saline filled capsules during the first week of the test. During the second and third weeks, the dogs received the test compound orally at a dose of 10 mcg./kg. twice each day. The dosage was increased to 40 mcg./kg. twice each day for the fourth week, and increased to 60 mcg./kg. twice each day through weeks five to eleven. The other five dogs received saline filled capsules throughout the study. Once each week, the animals' response to exercise on . the treadmill was evaluated. Resting data were obtained by permitting the dogs to lie on the treadmill before turning it on. The treadmill then was run at a speed of 3.5 kilometers/hr., with the dogs walking at this speed with no elevation for 5 min., and then for 5 min. at a 20% incline. During the eleventh week of such test, the dogs were made to walk on a 40% incline, thus providing sufficient stress to increase plasma lactic acid and catecholamines. Blood samples prior to each exercise and within two minutes of completing the exercise were taken from the jugular vein.
# After several weeks, the dogs were anesthetized and measurements of ventricular function and skeletal muscle blood flow and enzymes were made.
# [3] = Canis lupus familiaris, dogs, dose giving a 50% increase in contractile force (derivative of left ventricular pressure)
SMILES,"ED50 [1, 3] [µg/kg]",Blood Pressure Change mm/hg at ED50 ([1]; dogs),Heart rate Change beats/min. at ED50 ([1]; dogs) [beats/min.],further results
"C[C@@H](CCc1ccc(O)cc1)NC[C@H](O)c1ccccc1 [R,S-N-[2-phenyl-2-hydroxyethyl)-1-methyl-3-(4-hydroxyphenyl)propylamine, reference compound]",350,-20 mm/hg,18,
"C[C@@H](CCc1ccc(O)cc1)NC[C@H](O)c1ccc(O)cc1 [R,S-N-[2-(4-hydroxyphenyl)-2-hydroxyethyl]-1-methyl-3-(4-hydroxyphenyl)propylamine, reference compound]",,-2 mm/hg,15,ED50 ([1]; Canis lupus familiaris): 11 µg/kg
"C[C@H](CCc1ccc(O)cc1)NC[C@H](O)c1ccc(O)cc1.Cl [R,R-N-[2-(4-Hydroxyphenyl)-2-hydroxyethyl]-1-methyl-3-(4-hydroxyphenyl)propylaminium chloride]",,,,"Skeletal Muscle Blood Flow (ml./min./100 g.) ([2]; conditioned dogs, anesthetized after several weeks, p<0.01): 2.5 ml./min./100 g.; Heart Rate (beats/min.) at rest ([2]; conditioned dogs, at rest, p<0.01): 55 beats/min.; Heart Rate (beats/min.) at 20° walk ([2]; conditioned dogs, treadmill walk at 20°, p<0.01): 150 beats/min.; Blood Lactic Acid (mg.%) at rest ([2]; dogs, oral 10 then 40 then 60 mcg./kg. twice each day over eleven weeks, at rest, p<0.01 printed for lactic acid): 5.2 mg.%; Plasma Norepinephrine (picograms/ml.) at rest ([2]; dogs, oral 10 then 40 then 60 mcg./kg. twice each day over eleven weeks, at rest, p<0.05 printed for norepinephrine): 235 picograms/ml.; Blood Lactic Acid (mg.%) during exercise ([2]; dogs, oral 10 then 40 then 60 mcg./kg. twice each day over eleven weeks, during treadmill exercise, p<0.01 printed for lactic acid): 6.3 mg.%; Plasma Norepinephrine (picograms/ml.) during exercise ([2]; dogs, oral 10 then 40 then 60 mcg./kg. twice each day over eleven weeks, during treadmill exercise, p<0.05 printed for norepinephrine): 200 picograms/ml.; Succinic Dehydrogenase Activity (µM/mgP/min.) ([2]; skeletal muscle of conditioned dogs, p<0.01): 3.3 µM/mgP/min."
"C[C@H](CCc1ccc(O)cc1)NC[C@H](O)c1ccc(O)cc1 [R,R-N-[2-(4-hydroxyphenyl)-2-hydroxyethyl]-1-methyl-3-(4-hydroxyphenyl)propylamine]",,-5 mm/hg,15,ED50 ([1]; Canis lupus familiaris): 0.32 µg/kg
"C[C@H](CCc1ccc(C(N)=O)cc1)NC[C@H](O)c1ccccc1 [R,R-N-(2-Phenyl-2-hydroxyethyl)-l-methyl-3-(4-aminocarbonylphenyl)propylamine]",7,+3 mm/hg,15,
"C[C@H](CCc1ccc(O)cc1)NC[C@H](O)c1ccccc1 [R,R-N-(2-phenyl-2-hydroxyethyl)-1-methyl-3-(4-hydroxyphenyl)propylamine]",6,-13 mm/hg,15,
"C[C@@H](CCc1ccc(C(N)=O)cc1)NC[C@H](O)c1ccccc1 [R,S-N-(2-phenyl-2-hydroxyethyl)-1-methyl-3-(4-aminocarbonylphenyl)propylamine, reference compound]",,,,"ED (max) ([1]; Canis lupus familiaris, dogs, EDmax: a 50% increase in contractile force could not be achieved, dose giving the maximal increase, read-out: Cardiac Contractile Potency mcg/kg (EDmax)): 1980 µg/kg; Blood Pressure Change mm/hg (EDmax) ([1]; dogs, at EDmax dose): -30 (EDmax) mm/hg; Heart rate Change beats/min. (EDmax) ([1]; dogs, at EDmax dose): 24 (EDmax) beats/min."
